Data: ChEMBL document CHEMBL5465560, “Selectivity Literature for EUbOPEN Chemogenomic Library” (2024)

Experiments:
[1] = target: Cyclin-dependent kinase 9 (Homo sapiens, UniProt P50750); experiment: Selectivity interaction (Kinase panel (KiNativ target engagement assay in Jurkat cells)) EUB0001635a CDK9; format: cell-based; settings: at 1 µM
[2] = target: T1, Phosphatidylinositol 3-kinase C2 domain-containing subunit gamma (Homo sapiens) (UniProt O75747); settings: at 10 µM
T1 sequence (whole entry): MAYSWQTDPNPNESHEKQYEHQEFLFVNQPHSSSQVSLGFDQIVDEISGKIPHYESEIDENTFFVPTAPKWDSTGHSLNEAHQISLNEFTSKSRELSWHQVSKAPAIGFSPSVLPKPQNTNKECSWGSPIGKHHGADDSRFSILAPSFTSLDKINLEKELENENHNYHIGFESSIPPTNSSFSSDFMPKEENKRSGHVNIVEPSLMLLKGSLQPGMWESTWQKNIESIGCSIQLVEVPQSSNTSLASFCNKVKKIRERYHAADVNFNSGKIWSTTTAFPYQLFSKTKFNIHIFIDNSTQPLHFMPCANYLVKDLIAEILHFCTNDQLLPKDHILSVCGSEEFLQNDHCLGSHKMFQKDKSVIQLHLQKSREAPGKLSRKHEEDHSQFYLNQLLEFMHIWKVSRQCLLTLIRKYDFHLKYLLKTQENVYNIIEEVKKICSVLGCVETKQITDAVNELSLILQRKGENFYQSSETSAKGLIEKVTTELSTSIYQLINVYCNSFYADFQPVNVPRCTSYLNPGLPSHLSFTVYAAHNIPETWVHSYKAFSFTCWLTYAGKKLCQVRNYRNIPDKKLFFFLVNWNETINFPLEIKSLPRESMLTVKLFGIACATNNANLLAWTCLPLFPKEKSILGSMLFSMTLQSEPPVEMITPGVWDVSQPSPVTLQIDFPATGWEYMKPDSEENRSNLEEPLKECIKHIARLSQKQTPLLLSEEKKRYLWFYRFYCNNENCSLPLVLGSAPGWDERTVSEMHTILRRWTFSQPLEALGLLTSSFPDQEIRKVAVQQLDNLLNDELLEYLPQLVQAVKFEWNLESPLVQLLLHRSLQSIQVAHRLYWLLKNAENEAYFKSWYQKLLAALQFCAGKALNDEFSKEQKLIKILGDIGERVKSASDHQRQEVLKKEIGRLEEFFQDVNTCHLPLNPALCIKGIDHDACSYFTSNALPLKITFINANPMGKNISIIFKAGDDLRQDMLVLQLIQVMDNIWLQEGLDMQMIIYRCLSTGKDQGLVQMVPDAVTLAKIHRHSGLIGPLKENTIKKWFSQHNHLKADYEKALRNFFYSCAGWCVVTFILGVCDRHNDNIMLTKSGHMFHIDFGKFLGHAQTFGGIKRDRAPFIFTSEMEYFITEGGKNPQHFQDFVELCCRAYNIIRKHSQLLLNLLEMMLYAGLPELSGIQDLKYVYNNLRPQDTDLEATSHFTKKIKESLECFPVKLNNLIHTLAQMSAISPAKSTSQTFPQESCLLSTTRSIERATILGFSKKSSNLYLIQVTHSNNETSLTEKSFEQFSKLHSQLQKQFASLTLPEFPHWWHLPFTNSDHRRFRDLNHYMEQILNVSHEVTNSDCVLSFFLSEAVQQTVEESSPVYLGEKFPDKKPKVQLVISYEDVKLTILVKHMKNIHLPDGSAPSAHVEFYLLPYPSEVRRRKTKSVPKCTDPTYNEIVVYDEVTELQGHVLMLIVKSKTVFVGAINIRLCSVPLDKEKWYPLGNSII

[3] = target: T2, Dual specificity mitogen-activated protein kinase kinase 5 (Homo sapiens) (UniProt Q13163); experiment: Selectivity interaction (LanthaScreen Eu Kinase Binding Assay) EUB0001632a MAP2K5; settings: at 10 µM
T2 sequence (whole entry): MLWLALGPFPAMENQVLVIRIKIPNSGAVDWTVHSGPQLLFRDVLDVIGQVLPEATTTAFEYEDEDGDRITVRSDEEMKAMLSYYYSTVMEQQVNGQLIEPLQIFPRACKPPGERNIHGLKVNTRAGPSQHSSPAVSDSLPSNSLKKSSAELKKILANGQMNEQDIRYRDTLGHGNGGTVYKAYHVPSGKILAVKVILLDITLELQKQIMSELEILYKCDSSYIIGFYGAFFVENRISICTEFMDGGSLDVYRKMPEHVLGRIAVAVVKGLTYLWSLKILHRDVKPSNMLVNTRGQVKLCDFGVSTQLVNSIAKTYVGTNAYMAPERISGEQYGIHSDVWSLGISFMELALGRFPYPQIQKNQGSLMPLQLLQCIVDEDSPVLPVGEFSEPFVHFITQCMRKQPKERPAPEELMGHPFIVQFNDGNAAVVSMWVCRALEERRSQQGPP

[4] = target: Serine/threonine-protein kinase PAK 3 (Homo sapiens) (UniProt O75914); experiment: Selectivity interaction (KinomeScan (DiscoverX)) EUB0001049a PAK3; settings: at 1 µM
Serine/threonine-protein kinase PAK 3 (Homo sapiens), sequence (O75914 whole entry, looked up): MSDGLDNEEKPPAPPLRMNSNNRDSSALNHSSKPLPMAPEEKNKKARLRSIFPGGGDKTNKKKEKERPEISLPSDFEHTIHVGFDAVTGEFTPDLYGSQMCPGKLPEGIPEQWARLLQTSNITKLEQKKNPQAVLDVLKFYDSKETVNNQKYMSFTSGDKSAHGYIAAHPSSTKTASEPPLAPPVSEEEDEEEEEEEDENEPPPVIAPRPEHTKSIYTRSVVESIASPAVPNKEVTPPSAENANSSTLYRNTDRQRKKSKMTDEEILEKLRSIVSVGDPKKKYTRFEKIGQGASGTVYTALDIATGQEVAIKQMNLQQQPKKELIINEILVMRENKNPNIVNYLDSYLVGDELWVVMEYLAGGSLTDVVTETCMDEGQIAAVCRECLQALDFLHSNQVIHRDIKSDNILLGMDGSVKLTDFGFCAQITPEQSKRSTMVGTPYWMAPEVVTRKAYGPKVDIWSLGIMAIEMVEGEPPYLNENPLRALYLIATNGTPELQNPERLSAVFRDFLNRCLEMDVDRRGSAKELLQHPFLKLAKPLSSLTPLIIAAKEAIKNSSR

[5] = target: T3, 3-phosphoinositide-dependent protein kinase 1 (Homo sapiens) (UniProt O15530); experiment: Selectivity interaction (KinomeScan (DiscoverX)) EUB0000695a PDPK1; settings: at 100 nM
T3 sequence (whole entry): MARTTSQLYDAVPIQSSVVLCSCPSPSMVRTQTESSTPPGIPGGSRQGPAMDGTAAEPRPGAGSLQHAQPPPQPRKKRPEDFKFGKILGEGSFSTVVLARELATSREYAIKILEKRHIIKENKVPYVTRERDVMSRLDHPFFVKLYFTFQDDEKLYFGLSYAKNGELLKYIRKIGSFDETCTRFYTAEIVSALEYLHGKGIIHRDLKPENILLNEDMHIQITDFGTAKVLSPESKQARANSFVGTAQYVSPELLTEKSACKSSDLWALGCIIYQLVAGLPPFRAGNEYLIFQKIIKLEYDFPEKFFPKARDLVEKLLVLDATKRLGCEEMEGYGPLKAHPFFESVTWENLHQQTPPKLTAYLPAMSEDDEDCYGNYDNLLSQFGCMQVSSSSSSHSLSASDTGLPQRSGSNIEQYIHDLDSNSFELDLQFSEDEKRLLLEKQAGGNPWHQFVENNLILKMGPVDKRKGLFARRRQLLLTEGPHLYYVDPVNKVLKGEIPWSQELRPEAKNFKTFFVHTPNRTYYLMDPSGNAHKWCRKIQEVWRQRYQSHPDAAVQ

[6] = target: Hepatocyte growth factor-like protein (Homo sapiens) (UniProt P26927); experiment: Selectivity interaction (Ambit KINOMEscan and KiNATiv profiling in Jurkat cells) EUB0000090b MST1; format: cell-based; settings: at 1 µM

Cyclin-dependent kinase 9, sequence (P50750 whole entry, the tested form may be a part): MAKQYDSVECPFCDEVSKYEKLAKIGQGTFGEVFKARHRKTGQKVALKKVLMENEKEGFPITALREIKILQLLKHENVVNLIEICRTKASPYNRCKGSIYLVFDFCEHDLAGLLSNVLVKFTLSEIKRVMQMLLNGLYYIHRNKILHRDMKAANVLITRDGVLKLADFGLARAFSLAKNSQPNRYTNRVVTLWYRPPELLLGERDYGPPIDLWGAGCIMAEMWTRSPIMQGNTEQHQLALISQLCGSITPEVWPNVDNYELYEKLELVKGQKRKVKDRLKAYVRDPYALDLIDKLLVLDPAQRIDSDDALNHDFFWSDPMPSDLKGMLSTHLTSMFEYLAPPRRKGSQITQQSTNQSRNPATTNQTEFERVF

C=CC(=O)Nc1ccc(C(=O)Nc2[nH]nc3c2CN(C(=O)N[C@H](CN(C)C)c2ccccc2)C3(C)C)cc1
% of engagement [1]: -78.1%

Cc1cc([C@@H](C)Nc2ccccc2C(=O)O)c2nc(N3CCOCC3)cc(=O)n2c1 [AZD-6482]
% of control [2]: 7%

Cn1cc(-n2cnc3c(NCc4nc5cc(Cl)c(Cl)cc5[nH]4)nc(N4CCOCC4)nc32)cn1
% of inhibition [3]: 0.023%

COc1cc(Nc2nc(C)cc(-c3cnn4nc(OC)ccc34)n2)cc(C(F)(F)F)c1
% of control [4]: 85%

Cc1cc(F)c(C(=O)Nc2cccc(-c3nncn3C(C)C)n2)cc1-n1cnc(C2CC2)c1
% of control [5]: 82%

CN(C)C/C=C/C(=O)Nc1ccc(C(=O)N2CCCC(Nc3ncc(Cl)c(-c4c[nH]c5ccccc45)n3)C2)cc1 (stereo unspecified)
% of control [6]: 78%
